Measured values taken from patent US5567736A, “Use of a choline salt to inhibit fatty liver in patients receiving total parenteral nutrition” (priority 1994, dated 1996).
“And” between values parts separate entries of the source, which are not always exact repeats. Equal entries are not always repeated.

What was measured:
[1] = all subjects; baseline 5.2±2.1, normal 11.4+/-3.7 nmol/ml
Excerpt: (§1) Four subjects who were known to have low plasma free choline levels and hepatic steatosis were studied. The subjects included 3 females aged 45, 50 and 72 years and 1 person. Two subjects had short bowel syndrome from Crohn's disease, one had radiation enteritis and the fourth had pseudo-obstruction. The subjects had received home TPN for 9.7±4.7 years. Their TPN consisted of 2-3L of 15-25% dextrose solution with 3.0-3.5% amino acids, electrolytes, trace elements and vitamins. All subjects received 19.5±3.7 kcal-kg day actual body weight (range 16-24 kcal/kg/d). This level of support varied between subjects depending upon individual variation in oral intake and intestinal absorption.
(§2) Plasma-free choline level, serum SGOT, SGPT and total cholesterol levels were measured at each visit. Plasma free choline was measured by gas chromatography and mass spectrophotometry (See Jenden DJ, Roch M, Booth RA. Simultaneous measurements of endogenous and deuterium-labeled tracer variants of choline and acetylcholine in subpicomole quantities by gas chromatography spectrometry. Anal Biochem. 55:438-48, 1973; and Freeman JJ, Choi RL, Jenden DJ. Plasma choline: its turnover and exchange with brain choline. J. Neurochem. 24:729-34, 1975.)
The hepatic transaminase levels and cholesterol were determined using standard automated techniques. […]

[2] = tested on: hepatic transaminase levels; conditions: during the study, except Subject #1; three of four subjects had normal AST and ALT at baseline
Procedure: as §2
(§3) The hepatic transaminase levels and cholesterol were determined using standard automated techniques. Plasma phospholipid bound choline was measured at baseline, at the end of the 6 week nightly choline infusion and 4 weeks later following extraction as described by Folch et al (Folch J, Lees M, Stanley GHS. A simple method for the isolation and purification of total lipids from animal tissue. J. Bio Chem. 226:497-509, 1957.) and hydrolysis as described by Jope and Jenden (Jope RS, Jenden DJ. Choline and phospholipid metabolism and the synthesis of acetylcholine in rat brain. J. Neurosci Res. 4:69-82, 1979.). All blood samples were obtained on the subjects following an overnight fast and 3-5 hours following completion of the TPN.

total serum cholesterol = conditions: during the study
Procedure: as §2, §3

[3] = remark: listed apart in the source
Excerpt: as §1, with “females” for “females aged 45, 50 and 72 years”
as §2

[4] = Subject #4, pharmacokinetic studies preceding the 6 week choline infusion
[5] = tested on: hepatic steatosis (liver)
Excerpt: as §1, with “females” for “females aged 45, 50 and 72 years”
Intravenous lipid (Intralipid 20%, Clintec, Deerfield, Ill.) supplied 42.5%±25.7% of daily intravenous caloric intake. […] The TPN solution for each subject included 2.3-5 g of methionine on a daily basis depending upon the total amino acid concentration. The vitamin preparation included 5 μg vitamin B12 and 400 μg folate on a daily basis. All subjects received their TPN nightly as one dose over a period of 10-12 hours.
as §2
Computed tomography (CT) was used as a non-invasive method for quantifying hepatic fat density. Limited non-contrast CT scanning of the liver and spleen was performed using a GE 9800 CT scanner (Milwaukee, Wis.). Multiple contiguous 1-cm axial sections at 1-cm intervals were obtained. Attenuation values for regions of interest in the liver and spleen were generated from multiple representative sections. An average (mean) CT number in Hounsfield units (HU) was then calculated for each organ. Liver density was determined using two currently acceptable methods: a) the average absolute liver CT number, and b) the liver-spleen differential obtained by subtracting the average spleen CT number from the average liver CT number (to correct for interscan variability).
In the normal state, the liver and spleen maintain a fairly constant relationship in terms of relative CT numbers on non-contrast scans. On the main scanner employed at our institution, normal liver density corresponds to approximately 45 HU in absolute terms, and normal liver attenuation values exceed those of the spleen by approximately 8 HU (i.e., a liver-spleen differential of approximately positive 8 HU). Fat has a distinctly lower attenuation than other tissues and thus a distinct appearance on the CT image, as well as a distinctly low CT number in HU. Hepatic density and hepatic steatosis are therefore inversely related. Fatty liver was defined as an absolute CT number </=45 HU, or a liver-spleen differential of </= positive 8.0 HU (with 0-to-positive 8 HU representing borderline fatty change and </=0 HU corresponding to marked fatty infiltration).

[6] = concentrations as high as 10 g/l
[7] = various TPN nutrient solutions, at least 30 days

Q: What does the source list for C[N+](C)(C)CCO.[Cl-] [choline chloride]?
A: plasma free choline level after one week of choline supplementation [1]: increased into the normal range; hepatic transaminase levels [2]: No significant decreases; total serum cholesterol (total serum cholesterol): No change; effect on amino acid availability of the TPN solution [6]: does not affect; effect on pH of the TPN solution [6]: does not affect; stability in TPN solution [6]: at least 30 days; stability in various TPN nutrient solutions (various TPN nutrient solutions): at least 30 days; effect on TPN solution amino acid concentrations [7]: no adverse affects; effect on TPN solution pH [7]: no adverse affects; effect on TPN solution turbidity [7]: no adverse affects; tolerability after dose increased back to 1 g/day ([3]; Subject #4, from day 30 for remainder of study, 1 g/day): without complaints; side effect requiring dose adjustment ([3]; Subject #4, upon awakening at end of choline infusion, dose decreased from 2 g/day to 1 g/day, then 1 g every other day): mild nausea; side effects or dose adjustment in other subjects ([3]; subjects other than #4): No other subject experienced any side effects or required a dose adjustment; plasma free choline level tolerated without any side effects [4]: ≤ 230 nmol/mL; Liver-spleen Hounsfield unit differential, 4 Wks post choline ([5]; 4 weeks after choline discontinued, b48 Subject 1 (baseline -47.0), b50 Subject 2 (-0.7), b52 Subject 3 (0.3)): 10.6 Hounsfield unit and 15.7 Hounsfield unit and 15.0 Hounsfield unit; Liver-spleen Hounsfield unit differential, 10 weeks post choline supplementation ([5]; Subject 4 (baseline -9.4), 10 weeks post choline supplementation): -6.3 Hounsfield unit; liver-spleen CT number differential, normalisation ([5]; concurrent scans, six weeks of choline): assumed a normal or near-normal relationship; hepatic steatosis four weeks after choline was discontinued ([5]; follow-up post-supplementation CT): had not yet returned to baseline; improvement of CT number difference (liver-spleen subtraction method), average ([5]; initial CT two weeks after choline started vs baseline, 4 subjects, p=0.002): 20+/-16.5 HU; hepatic steatosis ten weeks after choline supplemented TPN discontinued ([5]; one subject (printed #3)): had recurred; liver density ten weeks after choline supplemented TPN discontinued ([5]; one subject (printed #3)): appeared identical to the baseline CT scan; liver-spleen differential ten weeks after choline supplemented TPN discontinued ([5]; one subject (printed #3)): returned to its original, pre-choline supplementation value; hepatic steatosis during six weeks of choline supplementation ([5]; six weeks of choline, all four subjects): completely resolved in all four subjects; liver density at initial CT scan ([5]; two weeks after choline supplementation initiated): marked increase in liver density; hepatic steatosis at initial CT scan ([5]; two weeks after choline supplementation initiated, all 4 subjects): decreased significantly in all 4 subjects; CT number difference (liver-spleen subtraction method), mean after choline ([5]; two weeks of choline, 4 subjects, baseline -14.2+/-22.3 HU, p=0.002): 8.4 +/-10.3 HU
